Source: paper PMC10185560, “Turn air-captured CO2 with methanol into amino acid and pyruvate in an ATP/NAD(P)H-free chemoenzymatic system” (Nature Communications, 2023)

Experiments:
L protein = molecular target: T1, L protein (Escherichia coli, UniProt P0A9P0); experiment: NADH formation at […] nm; type: biochemical
T1 construct: gene lpdA
T1 sequence (P0A9P0 2-474): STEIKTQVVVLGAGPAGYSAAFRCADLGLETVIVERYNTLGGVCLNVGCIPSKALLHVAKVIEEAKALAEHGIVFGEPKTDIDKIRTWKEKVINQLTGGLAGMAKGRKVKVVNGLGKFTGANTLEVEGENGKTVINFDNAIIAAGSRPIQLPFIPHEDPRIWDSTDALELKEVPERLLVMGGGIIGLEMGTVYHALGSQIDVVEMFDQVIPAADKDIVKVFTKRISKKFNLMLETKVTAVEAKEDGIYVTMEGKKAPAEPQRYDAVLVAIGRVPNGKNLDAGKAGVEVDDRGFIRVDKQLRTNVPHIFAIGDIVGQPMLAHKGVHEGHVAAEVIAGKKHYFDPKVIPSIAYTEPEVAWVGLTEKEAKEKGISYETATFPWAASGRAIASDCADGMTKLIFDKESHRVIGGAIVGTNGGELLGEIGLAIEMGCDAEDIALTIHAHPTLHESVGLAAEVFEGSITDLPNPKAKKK

MsLSD = molecular target: T2, MsLSD (Mycolicibacterium smegmatis, UniProt A0QY48); experiment: residual serine dehydratase activity; type: biochemical; conditions: 75% loss printed at 20 mM, reactive inactivator
T2 construct: gene MSMEG_3532; described as PLP-dependent
T2 sequence (A0QY48 1-316): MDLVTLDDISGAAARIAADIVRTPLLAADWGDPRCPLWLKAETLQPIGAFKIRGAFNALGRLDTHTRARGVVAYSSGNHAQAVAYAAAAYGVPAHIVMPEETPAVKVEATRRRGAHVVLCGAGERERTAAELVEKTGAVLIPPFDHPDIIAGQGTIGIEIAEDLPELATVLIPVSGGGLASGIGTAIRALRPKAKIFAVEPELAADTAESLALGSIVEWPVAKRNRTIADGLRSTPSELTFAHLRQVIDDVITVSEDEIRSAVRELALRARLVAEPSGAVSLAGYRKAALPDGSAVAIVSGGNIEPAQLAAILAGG

LpLSD = molecular target: T3, LpLSD (Legionella pneumophila, UniProt Q5ZXE1); conditions: freshly made enzyme
T3 construct: gene sda-2
T3 sequence (Q5ZXE1 1-458): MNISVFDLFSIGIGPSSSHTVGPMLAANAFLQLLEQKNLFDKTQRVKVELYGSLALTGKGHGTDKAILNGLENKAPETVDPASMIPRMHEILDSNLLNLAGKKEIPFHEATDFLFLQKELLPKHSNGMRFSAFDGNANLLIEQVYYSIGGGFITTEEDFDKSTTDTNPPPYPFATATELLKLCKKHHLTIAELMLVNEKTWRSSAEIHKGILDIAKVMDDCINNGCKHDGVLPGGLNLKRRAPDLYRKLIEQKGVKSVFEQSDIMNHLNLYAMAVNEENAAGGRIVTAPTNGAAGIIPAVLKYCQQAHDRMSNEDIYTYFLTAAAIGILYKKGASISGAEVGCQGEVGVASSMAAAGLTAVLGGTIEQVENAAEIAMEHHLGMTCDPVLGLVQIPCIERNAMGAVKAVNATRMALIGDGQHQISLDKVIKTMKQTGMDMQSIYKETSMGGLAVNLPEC

NC(=O)c1ccc[n+]([C@@H]2O[C@H](COP(=O)(O)OP(=O)(O)OC[C@H]3O[C@@H](n4cnc5c(N)ncnc54)[C@H](O)[C@@H]3O)[C@@H](O)[C@H]2O)c1 [NAD^+]
NADH formation at 340 nm (L protein): Hred was then re-oxidized by L-protein in the presence of NAD^+

C=O [formaldehyde]
activity loss at 10 mM formaldehyde (MsLSD): ~ 50%

N[C@@H](CO)C(=O)O [serine]
pyruvate formation by HPLC (LpLSD): The fresh-made LpLSD enzyme showed similar activities
